Patent publication US10947389B2, “Composition, film, near infrared cut filter, laminate, pattern forming method, solid image pickup element, image display device, infrared sensor, and color filter” (FUJIFILM Corporation, priority 2016, dated 2021)

Experiments:
[1] = Evaluation of absorption maximum and absorbance ratio (500 nm/λmax) in solution; assay type: physicochemical; conditions: for λmax (nm) of Second Near Infrared Absorbing Compound: as listed in Table 58; for Absorbance Ratio (500 nm/λmax) / Absorption Maximum (nm): solvent chloroform
Description: In this specification, “having an absorption maximum in a wavelength range of 650 to 1000 nm” denotes having a maximum absorbance in a wavelength range of 650 to 1000 nm in an absorption spectrum of the near infrared absorbing compound in a solution. Examples of a measurement solvent used for the measurement of the absorption spectra of the near infrared absorbing compound in the solution include chloroform, methanol, dimethyl sulfoxide, ethyl acetate, and tetrahydrofuran. In the case of a compound which is soluble in chloroform, chloroform is used as the measurement solvent. In the case of a compound which is not soluble in chloroform, methanol is used. In addition, In the case of a compound which is not soluble in chloroform and methanol, dimethyl sulfoxide is used.
Each of the compounds was dissolved in a measurement solvent shown in the following tables (concentration: 2.5×10^−6 mol/L) to measure an absorption spectrum (optical path length: 10 mm).
In addition, an absorbance ratio (500 nm/λmax) as a value obtained by dividing an absorbance at a wavelength of 500 nm by an absorbance at an absorption maximum was evaluated based on the following criteria.
A: the absorbance ratio (500 nm/λmax) was 0.04 or lower
B: the absorbance ratio (500 nm/λmax) was higher 0.04 and 0.08 or lower
C: the absorbance ratio (500 nm/λmax) was higher than 0.08

[2] = Evaluation of solubility in water at 23° C.; assay type: physicochemical; conditions: stirred for 1 hour
Procedure: Each of the compounds was added to water at 23° C. under the atmospheric pressure, the components were stirred for 1 hour, and the solubility of the compound in water was obtained. The solubility of the compound was evaluated based on the following criteria.
A: the solubility in water at 23° C. was 0.1 mass % or lower
B: the solubility in water at 23° C. was higher than 0.1 mass % and 1 mass % or lower
C: the solubility in water at 23° C. was higher than 1 mass %

λmax (nm) of Second Near Infrared Absorbing Compound [1]	Absorption Maximum (nm) [1]	Compound	Absorbance Ratio (500 nm/λmax) [1]	Solubility [2]
–	794 nm	COc1ccc2sc(C(C#N)=c3c4c(-c5ccc(OCC(CCCCCCCC(C)C)CCCCCC(C)C)cc5)n(B(c5ccccc5)c5ccccc5)c(=C(C#N)c5nc6cc(OC)ccc6s5)c4c(-c4ccc(OCC(CCCCCCCC(C)C)CCCCCC(C)C)cc4)n3B(c3ccccc3)c3ccccc3)nc2c1 (stereo not drawn) [II-673]	A (the absorbance ratio (500 nm/λmax) was 0.04 or lower)	A (the solubility in water at 23 °C was 0.1 mass % or lower)
–	743 nm	CC(C)CCCCCCCC(CCCCCC(C)C)COc1ccc(-c2c3c(=C(C#N)c4nc5ccccc5n4C)n(B(c4ccccc4)c4ccccc4)c(-c4ccc(OCC(CCCCCCCC(C)C)CCCCCC(C)C)cc4)c3c(=C(C#N)c3nc4ccccc4n3C)n2B(c2ccccc2)c2ccccc2)cc1 (stereo not drawn) [II-697]	A (the absorbance ratio (500 nm/λmax) was 0.04 or lower)	A (the solubility in water at 23 °C was 0.1 mass % or lower)
–	769 nm	CC(C)CCCCCCCC(CCCCCC(C)C)COc1cccc(-c2c3c(=C(C#N)c4nc5c(ccc6ccccc65)o4)n(B(c4ccccc4)c4ccccc4)c(-c4cccc(OCC(CCCCCCCC(C)C)CCCCCC(C)C)c4)c3c(=C(C#N)c3nc4c(ccc5ccccc54)o3)n2B(c2ccccc2)c2ccccc2)c1 (stereo not drawn) [II-715]	A (the absorbance ratio (500 nm/λmax) was 0.04 or lower)	A (the solubility in water at 23 °C was 0.1 mass % or lower)
–	863 nm	CC(C)CCCCCCCC(CCCCCC(C)C)COc1ccc(-c2c3c(=C(C#N)c4cnc5ccccc5n4)n(B(c4ccccc4)c4ccccc4)c(-c4ccc(OCC(CCCCCCCC(C)C)CCCCCC(C)C)cc4)c3c(=C(C#N)c3cnc4ccccc4n3)n2B(c2ccccc2)c2ccccc2)cc1 (stereo not drawn) [III-9]	A (the absorbance ratio (500 nm/λmax) was 0.04 or lower)	A (the solubility in water at 23 °C was 0.1 mass % or lower)
–	863 nm	CC(CCC(COc1cccc(-c2c3/c(=C(\C#N)c4cnc5ccccc5n4)n(B(c4ccccc4)c4ccccc4)c(-c4cccc(OCC(CCC(C)CC(C)(C)C)C(C)CC(C)(C)C)c4)c3/c(=C(\C#N)c3cnc4ccccc4n3)n2B(c2ccccc2)c2ccccc2)c1)C(C)CC(C)(C)C)CC(C)(C)C (stereo not drawn) [III-28]	A (the absorbance ratio (500 nm/λmax) was 0.04 or lower)	A (the solubility in water at 23 °C was 0.1 mass % or lower)
–	863 nm	CCCCCCCCCCC(CCCCCCCC)COc1cccc(-c2c3c(=C(C#N)c4cnc5ccccc5n4)n(B(c4ccccc4)c4ccccc4)c(-c4cccc(OCC(CCCCCCCC)CCCCCCCCCC)c4)c3c(=C(C#N)c3cnc4ccccc4n3)n2B(c2ccccc2)c2ccccc2)c1 (stereo not drawn) [III-29]	A (the absorbance ratio (500 nm/λmax) was 0.04 or lower)	A (the solubility in water at 23 °C was 0.1 mass % or lower)

More lines, now with the values behind:

Compound	λmax (nm) of Second Near Infrared Absorbing Compound [1]	Absorption Maximum (nm) [1]	Absorbance Ratio (500 nm/λmax) [1]	Solubility [2]
Cc1ccc2c(c1)OB(n1c(-c3cccc(OCC(CCC(C)CC(C)(C)C)C(C)CC(C)(C)C)c3)c3/c(=C(\C#N)c4nc5cc(C)ccc5o4)n(B4Oc5ccc(C)cc5O4)c(-c4cccc(OCC(CCC(C)CC(C)(C)C)C(C)CC(C)(C)C)c4)c3/c1=C(\C#N)c1nc3cc(C)ccc3o1)O2 (stereo not drawn) [II-269]	685 nm	685 nm	A (the absorbance ratio (500 nm/λmax) was 0.04 or lower)	A (the solubility in water at 23 °C was 0.1 mass % or lower)
Cc1ccc2oc(C(C#N)=c3c4c(-c5cccc(OCC(CCCCCCCC(C)C)CCCCCC(C)C)c5)n(B5Oc6cc7ccccc7cc6O5)c(=C(C#N)c5nc6cc(C)ccc6o5)c4c(-c4cccc(OCC(CCCCCCCC(C)C)CCCCCC(C)C)c4)n3B3Oc4cc5ccccc5cc4O3)nc2c1 (stereo not drawn) [II-274]	685 nm	685 nm	A (the absorbance ratio (500 nm/λmax) was 0.04 or lower)	A (the solubility in water at 23 °C was 0.1 mass % or lower)
Cc1ccc2oc(/C(C#N)=c3/c4c(-c5cccc(OCC(CCC(C)CC(C)(C)C)C(C)CC(C)(C)C)c5)n(B5Oc6cc7ccccc7cc6O5)/c(=C(/C#N)c5nc6cc(C)ccc6o5)c4c(-c4cccc(OCC(CCC(C)CC(C)(C)C)C(C)CC(C)(C)C)c4)n3B3Oc4cc5ccccc5cc4O3)nc2c1 (stereo not drawn) [II-275]	685 nm	685 nm	A (the absorbance ratio (500 nm/λmax) was 0.04 or lower)	A (the solubility in water at 23 °C was 0.1 mass % or lower)
CC(C)CCCCCCCC(CCCCCC(C)C)COc1ccc(-c2c3c(=C(C#N)c4nc5cc(Cl)ccc5o4)n(B(c4ccccc4)c4ccccc4)c(-c4ccc(OCC(CCCCCCCC(C)C)CCCCCC(C)C)cc4)c3c(=C(C#N)c3nc4cc(Cl)ccc4o3)n2B(c2ccccc2)c2ccccc2)cc1 (stereo not drawn) [II-325]	–	738 nm	A (the absorbance ratio (500 nm/λmax) was 0.04 or lower)	A (the solubility in water at 23 °C was 0.1 mass % or lower)
CC(CCC(COc1cccc(-c2c3/c(=C(\C#N)c4nc5cc(Cl)ccc5o4)n(B4Oc5ccccc5O4)c(-c4cccc(OCC(CCC(C)CC(C)(C)C)C(C)CC(C)(C)C)c4)c3/c(=C(\C#N)c3nc4cc(Cl)ccc4o3)n2B2Oc3ccccc3O2)c1)C(C)CC(C)(C)C)CC(C)(C)C (stereo not drawn) [II-408]	680 nm	680 nm	A (the absorbance ratio (500 nm/λmax) was 0.04 or lower)	A (the solubility in water at 23 °C was 0.1 mass % or lower)
CC(C)CCCCCCCC(CCCCCC(C)C)COc1ccc(-c2c3c(=C(C#N)c4nc5ccccc5s4)n(B(c4ccccc4)c4ccccc4)c(-c4ccc(OCC(CCCCCCCC(C)C)CCCCCC(C)C)cc4)c3c(=C(C#N)c3nc4ccccc4s3)n2B(c2ccccc2)c2ccccc2)cc1 (stereo not drawn) [II-507]	–	780 nm	A (the absorbance ratio (500 nm/λmax) was 0.04 or lower)	A (the solubility in water at 23 °C was 0.1 mass % or lower)
CC(CCC(COc1ccc(-c2c3c(=C(C#N)c4nc5ccccc5s4)n(B(c4ccccc4)c4ccccc4)c(-c4ccc(OCC(CCC(C)CC(C)(C)C)C(C)CC(C)(C)C)cc4)c3c(=C(C#N)c3nc4ccccc4s3)n2B(c2ccccc2)c2ccccc2)cc1)C(C)CC(C)(C)C)CC(C)(C)C (stereo not drawn) [II-508]	–	780 nm	A (the absorbance ratio (500 nm/λmax) was 0.04 or lower)	A (the solubility in water at 23 °C was 0.1 mass % or lower)
N#CC(c1nc2ccccc2s1)=c1c2c(-c3ccc(O)cc3)n(B(c3ccccc3)c3ccccc3)c(=C(C#N)c3nc4ccccc4s3)c2c(-c2ccc(O)cc2)n1B(c1ccccc1)c1ccccc1 [II-524]	–	779 nm	A (the absorbance ratio (500 nm/λmax) was 0.04 or lower)	A (the solubility in water at 23 °C was 0.1 mass % or lower)
CC(C)CCCCCCCC(CCCCCC(C)C)COc1cccc(-c2c3c(=C(C#N)c4nc5ccccc5s4)n(B(c4ccccc4)c4ccccc4)c(-c4cccc(OCC(CCCCCCCC(C)C)CCCCCC(C)C)c4)c3c(=C(C#N)c3nc4ccccc4s3)n2B(c2ccccc2)c2ccccc2)c1 (stereo not drawn) [II-525]	–	783 nm	A (the absorbance ratio (500 nm/λmax) was 0.04 or lower)	A (the solubility in water at 23 °C was 0.1 mass % or lower)
Cc1ccccc1B(c1ccccc1C)n1c(-c2ccc(OCC(CCCCCCCC(C)C)CCCCCC(C)C)cc2)c2c(=C(C#N)c3nc4ccccc4s3)n(B(c3ccccc3C)c3ccccc3C)c(-c3ccc(OCC(CCCCCCCC(C)C)CCCCCC(C)C)cc3)c2c1=C(C#N)c1nc2ccccc2s1 (stereo not drawn) [II-541]	–	772 nm	A (the absorbance ratio (500 nm/λmax) was 0.04 or lower)	A (the solubility in water at 23 °C was 0.1 mass % or lower)
CC(C)CCCCCCCC(CCCCCC(C)C)COc1cccc(-c2c3c(=C(C#N)c4nc5ccccc5s4)n(B4Oc5ccccc5O4)c(-c4cccc(OCC(CCCCCCCC(C)C)CCCCCC(C)C)c4)c3c(=C(C#N)c3nc4ccccc4s3)n2B2Oc3ccccc3O2)c1 (stereo not drawn) [II-589]	719 nm	719 nm	A (the absorbance ratio (500 nm/λmax) was 0.04 or lower)	A (the solubility in water at 23 °C was 0.1 mass % or lower)
CC(CCC(COc1cccc(-c2c3/c(=C(\C#N)c4nc5ccccc5s4)n(B4Oc5ccccc5O4)c(-c4cccc(OCC(CCC(C)CC(C)(C)C)C(C)CC(C)(C)C)c4)c3/c(=C(\C#N)c3nc4ccccc4s3)n2B2Oc3ccccc3O2)c1)C(C)CC(C)(C)C)CC(C)(C)C (stereo not drawn) [II-590]	719 nm	719 nm	A (the absorbance ratio (500 nm/λmax) was 0.04 or lower)	A (the solubility in water at 23 °C was 0.1 mass % or lower)
